For one molecule, zone of inhibition results are on record in patent US9504256B2, “Fabrication of magnetic nanoparticles” (University of South Carolina, priority 2013, dated 2016).

In the assay the test system is Staphylococcus aureus ATCC 25423. As to the kind of experiment: Disk diffusion assay. Format: cell-based. Particulars: ATCC25423, 12 μg PenG, read-out: inhibition zone diameter. On the procedure: The PMAA grafted magnetic nanoparticles were used to non-covalently attach the beta-lactam antibiotic penicillin-G (PenG) and subsequently tested for activity against bacteria. Escherichia coli (Gram-negative) and Staphylococcus aureus (Gram-positive) were selected as the target bacteria. The disk diffusion assay of PenG-nanoparticle complex was conducted with a control group of free PenG of the same dose (12 μg PenG). […] Thus, PMAA grafted magnetic nanoparticles enhanced the bioactivity of penG against bacteria when the nanoparticles were physically bound with PenG. Without wishing to be bound by any particular theory, it is believed that the enhanced inhibition activity was due to the locally high concentrations of antibiotics physically attached to PMAA grafted magnetic nanoparticles, which overwhelms the resistance of bacterial strains. The magnetic properties also offer a valuable stimulus technique to direct the nanoparticles in complicated bacterial environments, such as biofilms, while free antibiotic are not able to access cells in the sticky extracellular polymeric substances (EPS) of biofilms.
Escherichia coli ATCC 25922 and Staphylococcus aureus ATCC 25423 were allowed to grow in 10 mL of tryptic soy broth (TSB) at 37° C. overnight to an optical density of 0.8 (OD600=0.8) and then diluted 10-fold. 0.1 mL of the diluted culture was used to inoculate an agar plate. […]

Turning to `CC1(C)S[C@@H]2[C@H](NC(=O)Cc3ccccc3)C(=O)N2[C@H]1C(=O)O` [free PenG, penicillin-G], the zone of inhibition at 12 µg/disc stood at 18 mm.
